Laboratory results published in US12568967B2, “Compositions comprising pyridine carboxylate herbicides with synthetic auxin herbicides or auxin transport inhibitors” (priority 2018, dated 2026).
Several values for one entry are separate records, joined by “and”; a condition that tells them apart may be missing. Equal values may be shown once.

Legend:
Format in all cases: in vivo
[1] = system: Matricaria discoidea (pineapple weed, MATMT); experiment: Greenhouse postemergence trial MATMT; settings: MATMT
[2] = system: Papaver rhoeas (corn poppy, PAPRH); experiment: Greenhouse postemergence trial PAPRH; settings: PAPRH; for % visual injury Obs: alone; for % visual injury, Obs: applied alone
Experimental: (§1) Seeds of the desired test plant species were planted in a 90:10% v/v (volume/volume) mixture of PRO-MIX® BX (Premier Tech Horticulture, Quakertown, PA, USA) and PROFILE® GREENS GRADE™ (Profile Products LLC, Buffalo Grove, IL, USA) planting mixture, which typically has a pH of 5.2 to 6.2 and an organic matter content of at least 50 percent, in plastic pots with a surface area of 103.2 square centimeters (cm^2). […] The plants were grown for 7-36 days (d) in a greenhouse with an approximate 14-hour (h) photo-period which was maintained at about 23° C. during the day and 22° C. during the night. Nutrients and water were added on a regular basis and supplemental lighting was provided with overhead metal halide 1000-Watt lamps as necessary. The plants were employed for testing when they reached the second or third true leaf stage.
(§2) Emulsifiable concentrates of each of each pyridine carboxylate herbicide (Compound A or Compound B) were prepared at 100 grams acid equivalent per liter (g ae/L). The emulsifiable concentrates also included a safener, cloquintocet-mexyl, at 120 grams active ingredient per liter (g ai/L), unless otherwise noted below. An aliquot of each emulsifiable concentrate was placed in a 25 mL glass vial and diluted with an aqueous mixture of 1.25% (v/v) ACTIROB® B esterified rapeseed oil (Bayer Crop Science, Research Triangle Park, NC, USA) or MSO® Concentrate with LECI-TECH® methylated soybean oil (Loveland Products, Loveland, CO, USA) to obtain concentrated stock solutions at the highest application rate for each herbicide, based upon a 12 milliliter (mL) application volume at a rate of 187 liters per hectare (L/ha). The concentrated stock solutions were further diluted with an aqueous mixture of 1.25% v/v ACTIROB® B or MSO® Concentrate with LECI-TECH® to obtain stock solutions at reduced application rates for each herbicide. Spray solutions of the herbicide combinations (Compound A or Compound B plus synthetic auxin herbicide or auxin transport inhibitor) were prepared by adding weighed amounts or aliquots of the synthetic auxin herbicide or auxin transport inhibitor to the stock solutions of Compound A or Compound B to form 12-mL spray solutions in two-way combinations.
(§3) The spray solutions were applied to the plant material with an overhead Mandel track sprayer equipped with 8002E nozzles calibrated to deliver 187 L/ha over an application area of 0.503 square meters (m^2) at a spray height of 18 inches (43 centimeters (cm)) above the average plant canopy. Control plants were sprayed in the same manner with the solvent blank. All pyridine carboxylate herbicide (component a) application rates are given as “g ae/ha” and all synthetic auxin herbicide or auxin transport inhibitor (component b) application rates are given as “g ai/ha.”
(§4) The treated plants and control plants were placed in a greenhouse as described above and watered by sub-irrigation to prevent wash-off of the test compounds. After 20-22 d, the condition of the test plants as compared with that of the control plants was determined visually and scored on a scale of 0 to 100 percent where 0 corresponds to no injury and 100 corresponds to complete kill.

[3] = system: Kochia scoparia (kochia, KCHSC); experiment: Greenhouse postemergence trial KCHSC
[4] = system: Abutilon theophrasti (velvetleaf, ABUTH); experiment: Greenhouse postemergence trial ABUTH; settings: Compound A 10 g/ha
Experimental: as §1, §2, §3, §4

[5] = system: Capsella bursa-pastoris (shepherd's purse, CAPBP); experiment: Greenhouse postemergence trial CAPBP; settings: CAPBP; for % visual injury, Obs: applied alone
[6] = system: Hordeum vulgare (winter barley, HORVW); experiment: Greenhouse postemergence crop phytotoxicity HORVW; settings: for % visual injury Obs / visual injury, Obs / % visual injury, Obs: HORVW; for % visual injury, Obs: applied alone; for % visual injury (crop phytotoxicity): c1-3 Compound A 7.5/10/15
[7] = system: Cyanus segetum (cornflower, CENCY); experiment: Greenhouse postemergence trial CENCY; settings: CENCY; for % visual injury Obs: alone; for % visual injury, Obs: applied alone
Experimental: as §1, §2, §3, §4

N#CCOC(=O)c1nc(-c2ccc3cc[nH]c3c2F)c(F)c(N)c1Cl [Compound A, cyanomethyl 4-amino-3-chloro-5-fluoro-6-(7-fluoro-1H-indol-6-yl)pyridine-2-carboxylate]
% visual injury, Obs ([1]; applied alone, 15 g/ha): 15%
pest or weed control at […] ([1]; Matricaria discoidea, post-emergence, Compound A 7.5 g/ha, read-out: % visual injury Obs): 5%
pest or weed control at 10 g/ha ([1]; Matricaria discoidea, post-emergence, Compound A 10 g/ha, read-out: % visual injury Obs): 5%
pest or weed control at 15 g/ha ([1]; Matricaria discoidea, post-emergence, Compound A 15 g/ha, read-out: % visual injury Obs): 15%
visual injury, Obs ([2]; Compound A 10 g/ha alone): 100%
visual injury, Obs ([2]; Compound A 15 g/ha alone): 100%
% visual injury Obs ([2]; 10 g/ha): 100%
% visual injury Obs ([2]; 15 g/ha): 100%
% visual injury, Obs ([2]; 10 g/ha): 100%
% visual injury, Obs ([2]; 15 g/ha): 100%
pest or weed control at […] ([2]; Papaver rhoeas, post-emergence, Compound A 7.5 g/ha, read-out: % visual injury Obs): 100%
pest or weed control at 10 g/ha ([2]; Papaver rhoeas, post-emergence, Compound A 10 g/ha, read-out: % visual injury Obs): 100%
pest or weed control at 15 g/ha ([2]; Papaver rhoeas, post-emergence, Compound A 15 g/ha, read-out: % visual injury Obs): 100%
pest or weed control at […] ([3]; Bassia scoparia, post-emergence, KCHSC, Compound A 7.5 g/ha, read-out: % visual injury Obs): 70%
pest or weed control at 10 g/ha ([3]; Bassia scoparia, post-emergence, KCHSC, Compound A 10 g/ha, read-out: % visual injury Obs): 75%
pest or weed control at 15 g/ha ([3]; Bassia scoparia, post-emergence, KCHSC, Compound A 15 g/ha, read-out: % visual injury Obs): 80%
KCHSC Obs (% visual injury) ([3]; Compound A 10 g/ha): 65% and 55%
KCHSC % visual injury Obs ([3]; Compound A 10 g/ha (Table 42)): 65%
KCHSC % visual injury Obs ([3]; Compound A 10 g/ha (Table 43)): 65%
KCHSC % visual injury Obs ([3]; Compound A 10 g/ha (Table 44)): 65%
KCHSC Obs (% visual injury) ([3]; Compound A 10 g/ha, without safener): 88%
% visual injury Obs ([3]; KCHSC, Compound A 10 g/ha): 75%
% visual injury, Obs ([3]; KCHSC, Compound A 10 g/ha): 65% and 70% and 88%
visual injury, Obs ([3]; KCHSC, Compound A 10 g/ha alone): 75%
visual injury, Obs ([3]; KCHSC, Compound A 15 g/ha alone): 80%
% visual injury (Obs) ([3]; KCHSC, alone 10 g/ha): 68% and 55% and 70%
% visual injury Obs ([3]; KCHSC, alone 10 g/ha): 75%
% visual injury Obs ([3]; KCHSC, alone, 15 g/ha): 80%
% visual injury, Obs ([3]; KCHSC, applied alone, 10 g/ha): 75% and 70%
% visual injury, Obs ([3]; KCHSC, applied alone, 15 g/ha): 80%
% visual injury, Obs ([4]; ABUTH): 75%
ABUTH Obs (% visual injury) [4]: 78%
ABUTH Obs (% visual injury) ([4]; without safener): 75%
visual injury, Obs ([5]; Compound A 10 g/ha alone): 50%
visual injury, Obs ([5]; Compound A 15 g/ha alone): 85%
% visual injury (Obs) ([5]; alone 10 g/ha): 78%
% visual injury Obs ([5]; alone 10 g/ha): 50%
% visual injury Obs ([5]; alone, 15 g/ha): 85%
% visual injury, Obs ([5]; 10 g/ha): 50%
% visual injury, Obs ([5]; 15 g/ha): 85%
pest or weed control at […] ([5]; Capsella bursa-pastoris, post-emergence, Compound A 7.5 g/ha, read-out: % visual injury Obs): 50%
pest or weed control at 10 g/ha ([5]; Capsella bursa-pastoris, post-emergence, Compound A 10 g/ha, read-out: % visual injury Obs): 50%
pest or weed control at 15 g/ha ([5]; Capsella bursa-pastoris, post-emergence, Compound A 15 g/ha, read-out: % visual injury Obs): 85%
% visual injury Obs ([6]; Compound A 10 g/ha): 0%
visual injury, Obs ([6]; Compound A 10 g/ha alone): 0%
% visual injury Obs ([6]; Compound A 15 g/ha): 0%
visual injury, Obs ([6]; Compound A 15 g/ha alone): 0%
% visual injury Obs ([6]; alone, 10 g/ha): 0%
% visual injury Obs ([6]; alone, 15 g/ha): 0%
% visual injury, Obs ([6]; 10 g/ha): 0%
% visual injury, Obs ([6]; 15 g/ha): 0%
% visual injury (crop phytotoxicity) ([6]; c4-5 Fluroxypyr-MHE 100/140, c6-8, c9-11 A 7.5/10/15 + Fluroxypyr-MHE 100, 140 g/ha): 0%
% visual injury (crop phytotoxicity) ([6]; c4-6 Clopyralid 30/60/120, c7-9, c10-12, c13-15 A 7.5/10/15 + Clopyralid 30, 60, 120 g/ha): 0%
% visual injury (crop phytotoxicity) ([6]; c4 Aminopyralid 5, c5-7 A 7.5/10/15 + Aminopyralid 5 g/ha): 0%
% visual injury (crop phytotoxicity) ([6]; c4 Halauxifen-methyl 6, c5-7 A 7.5/10/15 + Halauxifen-methyl 6 g/ha): 0%
visual injury, Obs ([7]; Compound A 10 g/ha alone): 100%
visual injury, Obs ([7]; Compound A 15 g/ha alone): 100%
% visual injury Obs ([7]; 10 g/ha): 100%
% visual injury Obs ([7]; 15 g/ha): 100%
% visual injury, Obs ([7]; 10 g/ha): 100%
% visual injury, Obs ([7]; 15 g/ha): 100%
pest or weed control at […] ([7]; Centaurea cyanus, post-emergence, Compound A 7.5 g/ha, read-out: % visual injury Obs): 100%
pest or weed control at 10 g/ha ([7]; Centaurea cyanus, post-emergence, Compound A 10 g/ha, read-out: % visual injury Obs): 100%
pest or weed control at 15 g/ha ([7]; Centaurea cyanus, post-emergence, Compound A 15 g/ha, read-out: % visual injury Obs): 100%
